Experimental data published in patent US20260250337A1, “HYBRID ANTIMICROBIAL PEPTIDES” (UNIVERSIDADE FEDERAL DO ABC, priority 2023, published 2026).
No end group written: not given here.

Assays:
[1] = system: E. coli ATCC11775; assay: Broth microdilution MIC, ESKAPE pathogens; assay type: cell-based; conditions: LB, 37° C., 24 h
Protocol: (§1) Method. The minimal inhibitory concentration (MIC) against the ESKAPE pathogens was determined using the broth microdilution method^81, 82 in Luria-Bertani (LB) medium. The MIC value was defined as the lowest concentration of peptide at which no microbial growth was observed. A. baumannii ATCC19606, E. coli ATCC11775, E. coli AIC221, E. coli AIC222, K. pneumoniae ATCC13883, S. aureus ATCC12600 P. aeruginosa PAO1, and P. aeruginosa PA14 were incubated on agar plates, and after 24 h, three isolated colonies were inoculated to 5 mL of Luria-Bertani (LB) broth and maintained at 37° C. overnight with shaking. Peptides were then added to 96-well polystyrene microtiter plates at concentrations ranging from 0 to 128 μmol L^−1, and 5×10^5 CFU mL^−1 of each bacterium was inoculated in each well. The plates were incubated at 37° C. for 24 h. Bacterial growth was measured using a microplate reader at 610 nm. Three independent replicates were performed.

[2] = system: E. coli AIC222; assay: Broth microdilution MIC, ESKAPE pathogens; assay type: cell-based; conditions: LB, 37° C., 24 h
Protocol: as §1

[3] = system: skin tissue; assay: Skin tissue histopathological analysis (H&E); assay type: in vivo, mice; conditions: 24 h after infection and treatment
Protocol: Skin tissue histopathological analysis. […] The fur on the back of the mice was removed and the mice were infected and treated as described in the Skin abscess infection mouse model section. After 24 h, mice were euthanized for tissue collection. Samples were pre-fixed in individual cassettes, then transferred to a container filled with 70% EtOH for slicing and staining. Next, the samples were placed on glass slides for microscopy analysis. We collected the tissue from three mice per condition analyzed.

[4] = system: C. tropicalis IOC 4560; assay: Liquid growth inhibition assay, MIC (antifungal); assay type: cell-based, Candida tropicalis; conditions: 37° C., 24 h
Protocol: (§2) Initially, the antimicrobial activity was determined by liquid growth inhibition assays, as previously described by Pedron et al.^62. Briefly, Peptone Broth and Potato Dextrose Broth (Invitrogen) were used for antibacterial and antifungal assays, respectively. Two-fold serial dilutions of peptides (0.09-50 μmol L^−1) and microorganisms (Serratia marcescens ATCC 4112, Enterobacter cloacae β-12, Micrococcus luteus A270, Bacillus megaterium ATCC 10778, Bacillus subtilis ATCC 6633, Candida albicans MDM8, and Candida tropicalis IOC 4560) were incubated at 37° C. for 18 h (for bacteria) or 24 h (for fungi), and microbial growth was assessed by absorbance measurements at 595 nm. Experiments were performed in three biological repeats.

[5] = system: A. baumannii ATCC19606; assay: DiSC3(5) assay, cytoplasmic membrane depolarization; assay type: cell-based; conditions: peptides at their MIC
Protocol: Method. The cytoplasmatic membrane depolarization activity of two of the naturally occurring peptides (VmCT1 and temporin A) and two of the hybrids (VT and TV) was determined at their MIC by performing the membrane potential-sensitive dye DiSC3(5), as reported previously^105, 106. A. baumannii ATCC19606 cells were grown at 37° C. with agitation to an optical density of 600 nm (OD600) of 0.5, centrifuged, washed twice with buffer (5 mmol L^−1 HEPES, 20 mmol L^−1 glucose, pH 7.2), and resuspended to an OD600 of 0.05 in the same buffer but containing 0.1 mol L^−1 KCl. Cells (100 μL) were incubated for 15 minutes with 20 nmol L^−1 of DiSC3(5) until a stable reduction in fluorescence was observed, indicating the incorporation of the DiSC3(5) into the bacterial membrane. After adding the peptides (100 μL solution at 1.2 μmol L^−1), membrane depolarization was determined by the change observed in the fluorescence emission intensity of the dye at λex=622 nm and […].

[6] = system: B. megaterium ATCC 10778; assay: Liquid growth inhibition assay, MIC; assay type: cell-based, Bacillus megaterium; conditions: 37° C., 18 h
Protocol: as §2

[7] = system: C. albicans MDM8; assay: Liquid growth inhibition assay, MIC (antifungal); assay type: cell-based, Candida albicans; conditions: 37° C., 24 h
Protocol: as §2

[8] = Resistance to degradation in fetal bovine serum; assay type: in vitro ADME; conditions: for remaining at 0.5 h / remaining peptide, 30 min: 30 min; for remaining at 0.5 h: read-out: remaining peptide, 30 min
Protocol: The resistance to proteolytic degradation of the hybrid peptides was assessed by exposing them for 6 h to serum peptidases in a fetal bovine serum solution^68, 69 (FIG. 5a and Table S4). The peptide degradation kinetics were calculated by integrating the peak area of the peak in relation to the peptide at the beginning of the experiment (time=0) and comparing it to the integrated peak area relative to the peptides after exposure to the enzymes at time points: 0.5, 1, 2, 4, and 6 h (FIG. 5a and Table S4). […] However, AV was resistant to degradation against proteases, with almost 40% peptide content remaining after 4 h of exposure (FIG. 5a and Table S4). […] VP was almost entirely degraded after 30 min (22% of peptide remaining). […] D-amino acid substitutions have been used as alternatives to prevent the degradation of AMPs. For example, Qiu et. al. described a protonectin analog with a D-Lys residue in position 10 as an alternative to protonectin; this analog is not degraded and has higher antimicrobial activity against bacteria and fungi than the original peptide.
Methods. Stability assays were performed following the protocol described by Torres et al.^71. Briefly, a peptide solution was added to GIBCO fetal bovine serum diluted to 25% in water and kept at 37° C. The degradation kinetics were monitored by liquid chromatography and the percentage of peptide remaining was calculated by integrating the peptide peak area. The experiments were performed as three independent replicates, and aliquots were taken at 0, 0.5, 1, 2, 4, and 6 h.

[9] = system: MCF-7 human breast cancer cells; assay: Anticancer activity, MTT assay; assay type: cell-based; conditions: for MCF-7 4 h LD50 / MCF-7 24 h LD50: MTT
Protocol: The anticancer activity assays were performed using MCF-10A human breast epithelial cells and MCF-7 mammary cancer cells as previously described by Pedron et al. 86. Briefly, the day before treatment, the cells were incubated at 37° C. and 5% CO2 for 24 h. The cells were treated with peptides ranging from 12.5 to 100 μmol L^−1 (MCF10-A cells) and 0.8 to 100 μmol L^−1 (MCF-7 cells) for 4 h and 24 h at 37° C., and cell viability was measured using 3-(4,5-Dimethylthiazol-2-yl)-2,5-diphenyltetrazolium bromide (MTT) assays 87. Three independent replicates were performed in each case.

[10] = bovine, fetal bovine serum, 25% in water, fetal bovine serum 25% in water, 37° C.
[11] = fetal bovine serum 25% in water, 37° C.

Substance	MIC E. coli ATCC11775 [1] [µM]	MIC E. coli AIC222 [2] [µM]	tissue morphology / toxicity, H&E staining [3]	MIC C. tropicalis IOC 4560 [4] [µM]	cytoplasmic membrane depolarization, DiSC3(5) fluorescence [5]	MIC B. megaterium ATCC 10778 [6] [µM]	MIC C. albicans MDM8 [7] [µM]	remaining at 0.5 h [8, 10] [%]	remaining at 1 h ([8]; bovine, fetal bovine serum, 25% in water, fetal bovine serum 25% in water, 37° C., 1 h, read-out: remaining peptide, 1 h) [%]	remaining at 2 h ([8]; bovine, fetal bovine serum, 25% in water, fetal bovine serum 25% in water, 37° C., 2 h, read-out: remaining peptide, 2 h) [%]	remaining peptide, 30 min [8, 11]	remaining peptide, 1 h ([8]; fetal bovine serum 25% in water, 37° C., 1 h)	MCF-7 4 h LD50 [9] [µmol/L]	MCF-7 24 h LD50 [9] [µmol/L]	concentration with activity against MCF-7 human breast cancer cells ([9]; incubation time not stated) [µmol/L]	time of exposure after which totally degraded ([8]; fetal bovine serum) [h]
FLGAIGNVLKSIL-NH2 [TV, Phe-Leu-Gly-Ala-Ile-Gly-Asn-Val-Leu-Lys-Ser-Ile-Leu]	32	8	Neither TV nor VmCT1 changed the tissue's morphology	3.1	depolarized the cytoplasmic membrane	6.3	25	–	–	–	–	–	–	–	–	–
FLGALWNVAKSVF-NH2 [VmCT1, Phe-Leu-Gly-Ala-Len-Trp-Asu-Val-Ala-Lys-Ser-Val-Phe, reference compound]	16	16	Neither TV nor VmCT1 changed the tissue's morphology	12.5	–	1.6	12.5	~20	< 10	< 10	approximately 20%	less than 10%	50	12.5	50	–
FLPLIGRVLSGIL-NH2 [Temporin A, Phe-Leu-Pro-Leu-Ile-Gly-Arg-Val-Leu-Ser-Gly-Ile-Leu, reference compound]	64	32	–	12.5	–	6.3	25	–	–	–	–	–	50	50	–	–
FLPLLWRVASGVF-NH2 [VT, Phe-Leu-Pro-Leu-Leu-Trp-Arg-Val-Ala-Ser-Gly-Val-Phe]	64	32	–	25	depolarized the cytoplasmic membrane	6.3	12.5	–	–	–	–	–	–	–	–	–
ILGAILNVLKSLG-NH2 [PV, Ile-Leu-Gly-Ala-Ile-Leu-Asn-Val-Leu-Lys-Ser-Leu-Gly]	32	16	–	6.3	–	12.5	12.5	~90	–	–	~ 90%	–	–	–	–	1
